Measured values reported in patent US20170143748A1, “ANTI-TUMOR PHARMACEUTICAL APPLICATION OF PENTACYCLIC TRITERPENE SAPONIN COMPOUNDS OF SZECHUAN MELANDIUM ROOT” (priority 2014, published 2017).
Several values for one entry are separate records, joined by “and”; a condition that tells them apart may be missing. Identical values can stand only once.

Columns and labels:
HepG2 [1] = experiment: Detection of apoptosis (Annexin V-FITC/PI flow cytometry); type: cell-based, Human; conditions: HepG2, 80 μg/mL, 24 hours
Method: (§1) Human resources hepatoma cell line HepG2 was provided by Cancer Hospital, Chinese Academy of Medical Sciences. […] Cells were passaged every 2 or 3 days, and all the experiments were carried out on exponentially growing cells.
Following the incubation of cells in the flasks with drug for 24 hours, cell suspension was harvested with 5×10^5 to 1×10^6 cells/mL, and taken with 1 mL for centrifuging for 10 min at 1000 RPM and 4° C. The supernatant was replaced carefully, added with 1 mL cold phosphate-buffered saline, gently shaken for resuspension, recentrifuged and replaced the supernatant. The cells were resuspended with 200 μl Binding Buffer, added with 10 μl Annexin V-FITC and 5 μl PI, gently shaken and reacted for 15 min at Room temperature, then added with 300 μl Binding Buffer and finally measured immediately with Flow cytometry.

HepG2 [2] = experiment: Cell cycle detection (PI flow cytometry); type: cell-based, Human
Method: as §1
[…] Cells were blown and centrifuged at 1000 RPM for 5 mins. The supernatant was removed and 1-2 mL cold phosphate-buffered saline was added, blown and centrifuged again. The precipitate was blew and then fixed with −20° C. 70% alcohol (1-2 mL), centrifuged again. Alcohol was removed, and the precipitate was washed two times with phosphate-buffered saline, blown for suspension and filtered through 100 mesh gauze filter to flow detection tube, centrifuged at 1000 RPM for 5 mins. The supernatant was abandoned and cells were stained with PI dye (50 μg/mL), vibrated and stained at least 30 mins in darkness, detected with Flow cytometry.

HepG2 [3] = experiment: MTT inhibition of tumor cells in vitro (Example 3); type: cell-based, Human; conditions: Homo sapiens, HepG2, 48 h, 40 μg/mL, read-out: Inhibition rate, HepG2
HepG2 human heptoma = experiment: Anti-HepG2 human heptoma in BALB/c (nu/nu) nude mice; conditions: for body weight of HepG2-bearing nude mice / tumor volume of HepG2-bearing nude mice: mg/kg BW: total saponins 1.5, Compound 1, combination 1 & 39, Cytoxan 40, Sc
Method: 70 male BALB/c (nu/nu) nude mice (18-20 g, License NO. SCXK (BJ) 2009-0017, National Institutes for Food and Drug Control.) were adaptively bred for one week, and then used in the following experiment.
Human resources hepatoma cell line HepG2 was cultured in RPMI-1640 medium containing 100 U/mL Penicillin and 100 μg/mL Streptomycin with 10% fetal bovine serum and maintained at 37° C. in a humidified atmosphere (5% CO2 and […]).
70 BALB/c (nu/nu) nude mice were adaptively bred for 1 week, HepG2 cells were inoculated subcutaneously into the back of nude mice, 1×10^7 cells per mouse. […] 3 days after inoculation, mice of every therapeutic group were all given the relevant compounds or drugs for 3 weeks, and others were given isodose physiological saline.
The body weight and the size of tumor were measured and recorded weekly. The tumor volume was calculated with the formula below:
tumor volume V=π/6×a×b^2 (a, b means the transverse and longitudinal length of tumor)
At the end of administration, mice were fastened for 8 hours, weighed the fasting body weight, dropped off eyeball to collect blood, centrifuged and collected serum for next experiment. The tumors were departed and weighed. Tumor Index and inhibition rate were calculated as below:
Tumor Index=Tumor mass (mg)/body weight of animal (g)
Inhibition rate=(Average tumor massControl group−Average tumor massadministration group)/Average tumor massControl group×100%
Mice in the model group were injected with sterile water (10 ml/kg BW), Sc. All the animals were treated at 9 am for 3 weeks.
Determination of body weights: Body weights of animals were weighed and recorded once a week.
Tumor measurement: The transverse and longitudinal lengths of tumor were measured with vernier caliper weekly.
End of the experiment: After mice being administrated for 3 weeks (21 days), the experiment was terminated.

HT29 human colon cancer = experiment: Anti-HT29 human colon cancer in BALB/c (nu/nu) nude mice; type: in vivo; conditions: for body weight of HT29-bearing nude mice / tumor volume of HT29-bearing nude mice: mg/kg BW: total saponins 1.5, Compound 1, combination 1 & 19, PTX 20, Sc
Method: Human resources Colon cancer cell line HT29 was cultured in the same condition as the experiment 4. […] Mice were randomly assigned into 7 groups: […] The body weight and the tumor volume were measured and recorded weekly. The tumor volume was calculated according to the formula below. […] The tumors were departed and weighed.

[4] = tested on: BGC823 human gastric adenocarcinoma; experiment: Anti-BGC823 human gastric adenocarcinoma in BALB/c (nu/nu) nude mice; type: in vivo; conditions: for body weight of BGC823-bearing nude mice / tumor volume of BGC823-bearing nude mice: mg/kg BW: total saponins 1.5, Compound 1, combination 1 & 19, 5-FU 20, Sc; for body weight of BGC823-bearing nude mice: in g (unit assumed)
Method: Human resources gastric adenocarcinoma cell line BGC823 was cultured in the same condition as the experiment 4.
The body weight and the tumor volume were measured and recorded weekly. The tumor volume was calculated according to the formula below.
Tumors were departed and weighed. Tumor Index and inhibition rate were calculated as below: […]

Structure (SMILES): COC(=O)C1CC(O[C@H]2CC[C@]3(C)[C@H]4C=CC5[C@@H]6CC(C)(C)CC[C@]6(C(=O)OC6OC(C)C(OC(=O)/C=C/c7ccc(C)cc7)C(OC(C)=O)C6OC6CC(C)C(O)C(O)C6O)[C@H](O)C[C@@]5(C)[C@]4(C)CC[C@H]3[C@]2(C)C=O)C(OC2OC(CO)C(O)C(O)C2O)C(OC2OCC(O)C(O)C2O)C1O (some centres unmarked) [Compound (2), sinocrassuloside VII]
- early apoptosis signal (HepG2 [1]; control 1.5%): 8.5%
- number of necrotic cells (HepG2 [1]; control 2.0%): 6.6%
- cells in G0/G1 (HepG2 [2]; 20 μg/mL, 24 h): 67.26%
- cells in G2/M (HepG2 [2]; 20 μg/mL, 24 h): 15.57%
- cells in S (HepG2 [2]; 20 μg/mL, 24 h): 17.22%
- cells in G0/G1 (HepG2 [2]; 20 μg/mL, 48 h): 60.62%
- cells in G2/M (HepG2 [2]; 20 μg/mL, 48 h): 23.27%
- cells in S (HepG2 [2]; 20 μg/mL, 48 h): 16.11%
- cells in G0/G1 (HepG2 [2]; 20 μg/mL, 72 h): 59.77%
- cells in G2/M (HepG2 [2]; 20 μg/mL, 72 h): 13.96%
- cells in S (HepG2 [2]; 20 μg/mL, 72 h): 26.27%
- cells in G0/G1 (HepG2 [2]; 40 μg/mL, 24 h): 52.52%
- cells in G2/M (HepG2 [2]; 40 μg/mL, 24 h): 29.95%
- cells in S (HepG2 [2]; 40 μg/mL, 24 h): 17.53%
- cells in G0/G1 (HepG2 [2]; 40 μg/mL, 48 h): 55.08%
- cells in G2/M (HepG2 [2]; 40 μg/mL, 48 h): 32.64%
- cells in S (HepG2 [2]; 40 μg/mL, 48 h): 12.29%
- cells in G0/G1 (HepG2 [2]; 40 μg/mL, 72 h): 63.09%
- cells in G2/M (HepG2 [2]; 40 μg/mL, 72 h): 20.44%
- cells in S (HepG2 [2]; 40 μg/mL, 72 h): 16.48%
- cells in G0/G1 (HepG2 [2]; 80 μg/mL, 24 h): 55.19%
- cells in G2/M (HepG2 [2]; 80 μg/mL, 24 h): 21.20%
- cells in S (HepG2 [2]; 80 μg/mL, 24 h): 20.39±2.56% and 20.39%
- cells in G0/G1 (HepG2 [2]; 80 μg/mL, 48 h): 47.28%
- cells in G2/M (HepG2 [2]; 80 μg/mL, 48 h): 21.77%
- cells in S (HepG2 [2]; 80 μg/mL, 48 h): 30.95±5.84% and 30.95%
- cells in G0/G1 (HepG2 [2]; 80 μg/mL, 72 h): 49.28%
- cells in G2/M (HepG2 [2]; 80 μg/mL, 72 h): 10.39%
- cells in S (HepG2 [2]; 80 μg/mL, 72 h): 40.34±12.32% and 40.34%
- inhibition at 40 µg/mL (HepG2 [3]): > 90%
- body weight of HepG2-bearing nude mice (HepG2 human heptoma; 0 W): 19.50 ± 0.53
- body weight of HepG2-bearing nude mice (HepG2 human heptoma; 1 W): 21.60 ± 0.84
- tumor volume of HepG2-bearing nude mice (HepG2 human heptoma; 1 W): 564.84 ± 474.95
- body weight of HepG2-bearing nude mice (HepG2 human heptoma; 2 W): 22.40 ± 1.17
- tumor volume of HepG2-bearing nude mice (HepG2 human heptoma; 2 W): 841.36 ± 577.72
- body weight of HepG2-bearing nude mice (HepG2 human heptoma; 3 W): 22.70 ± 0.95
- tumor volume of HepG2-bearing nude mice (HepG2 human heptoma; 3 W): 911.76 ± 460.22
- Inhibition rate (HepG2 human heptoma; HepG2-bearing nude mice, after 3 weeks, from average tumor mass vs model): 87.42% and 87.32%
- body weight of HT29-bearing nude mice (HT29 human colon cancer; 0 W): 20.10 ± 1.35
- body weight of HT29-bearing nude mice (HT29 human colon cancer; 1 W): 22.10 ± 0.90
- tumor volume of HT29-bearing nude mice (HT29 human colon cancer; 1 W): 639.16 ± 539.16
- body weight of HT29-bearing nude mice (HT29 human colon cancer; 2 W): 22.90 ± 0.90
- tumor volume of HT29-bearing nude mice (HT29 human colon cancer; 2 W): 918.54 ± 469.16
- body weight of HT29-bearing nude mice (HT29 human colon cancer; 3 W): 22.70 ± 1.38
- tumor volume of HT29-bearing nude mice (HT29 human colon cancer; 3 W): 859.24 ± 691.16
- Inhibition rate (HT29 human colon cancer; HT29-bearing nude mice, after 3 weeks, from average tumor mass vs model): 54.87%
- body weight of BGC823-bearing nude mice ([4]; 0 W): 20.10 ± 1.10
- tumor volume of BGC823-bearing nude mice ([4]; 1 W): 796.43 ± 563.35
- tumor volume of BGC823-bearing nude mice ([4]; 2 W): 1186.34 ± 625.68
- body weight of BGC823-bearing nude mice ([4]; 2 W): 23.00 ± 0.82
- tumor volume of BGC823-bearing nude mice ([4]; 3 W): 1654.23 ± 891.57
- body weight of BGC823-bearing nude mice ([4]; 3 W): 23.40 ± 1.58
- Inhibition rate ([4]; BGC823-bearing nude mice, after 3 weeks, from average tumor mass vs model): 79.63%
